{"source": "BindingDB's records for doi:10.1021/acsmedchemlett.3c00104", "about": "(Novartis Institutes for Biomedical Research, 2023)", "key": {"[1]": {"target": "T1, DDB1- and CUL4-associated factor 1 (Homo sapiens, UniProt Q9Y4B6)", "T1 sequence (Q9Y4B6 whole entry, the tested form may be a part)": "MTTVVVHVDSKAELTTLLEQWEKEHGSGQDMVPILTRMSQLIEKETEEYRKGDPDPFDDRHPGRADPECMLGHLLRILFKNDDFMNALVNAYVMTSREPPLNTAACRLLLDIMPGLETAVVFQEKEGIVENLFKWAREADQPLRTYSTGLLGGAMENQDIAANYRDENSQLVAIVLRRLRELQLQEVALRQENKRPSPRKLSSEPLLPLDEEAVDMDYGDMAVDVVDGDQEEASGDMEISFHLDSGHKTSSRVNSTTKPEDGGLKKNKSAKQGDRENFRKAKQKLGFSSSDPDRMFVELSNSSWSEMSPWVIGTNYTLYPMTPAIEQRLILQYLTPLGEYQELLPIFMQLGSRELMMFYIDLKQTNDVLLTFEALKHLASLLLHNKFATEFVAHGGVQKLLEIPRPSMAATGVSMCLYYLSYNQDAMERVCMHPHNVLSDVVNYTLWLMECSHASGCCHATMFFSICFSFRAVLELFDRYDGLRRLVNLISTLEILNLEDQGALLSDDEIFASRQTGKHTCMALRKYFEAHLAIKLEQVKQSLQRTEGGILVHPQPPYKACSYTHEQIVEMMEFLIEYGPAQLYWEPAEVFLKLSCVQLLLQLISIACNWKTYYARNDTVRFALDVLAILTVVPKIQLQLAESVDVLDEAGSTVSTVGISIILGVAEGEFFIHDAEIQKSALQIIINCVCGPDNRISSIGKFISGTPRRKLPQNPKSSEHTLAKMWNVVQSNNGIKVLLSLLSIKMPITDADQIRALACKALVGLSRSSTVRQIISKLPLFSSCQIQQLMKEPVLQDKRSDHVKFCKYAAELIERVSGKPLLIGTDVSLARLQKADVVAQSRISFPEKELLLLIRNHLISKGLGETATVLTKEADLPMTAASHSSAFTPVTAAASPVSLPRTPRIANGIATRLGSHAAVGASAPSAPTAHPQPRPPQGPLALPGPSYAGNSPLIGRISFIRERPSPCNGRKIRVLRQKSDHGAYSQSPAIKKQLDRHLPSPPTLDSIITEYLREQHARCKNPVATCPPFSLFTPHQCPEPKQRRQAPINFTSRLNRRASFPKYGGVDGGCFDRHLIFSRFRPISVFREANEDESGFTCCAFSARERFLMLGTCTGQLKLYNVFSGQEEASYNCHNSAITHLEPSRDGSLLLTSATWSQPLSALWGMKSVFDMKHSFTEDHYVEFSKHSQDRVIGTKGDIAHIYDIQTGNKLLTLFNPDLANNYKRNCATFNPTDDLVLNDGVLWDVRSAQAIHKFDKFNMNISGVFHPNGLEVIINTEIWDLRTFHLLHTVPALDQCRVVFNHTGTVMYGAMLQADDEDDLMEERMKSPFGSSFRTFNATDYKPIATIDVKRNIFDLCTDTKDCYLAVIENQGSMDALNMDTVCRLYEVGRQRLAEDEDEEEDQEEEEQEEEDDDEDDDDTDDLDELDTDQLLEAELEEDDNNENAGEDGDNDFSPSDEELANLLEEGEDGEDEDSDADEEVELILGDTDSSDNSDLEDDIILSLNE", "experiment": "Binding affinity to Avi-tagged DCAF1 (1073 to 1399 residues) (unknown origin) expressed in baculovirus infected in Sf9 insect cells by SPR analysis"}, "[2]": {"target": "T1, DDB1- and CUL4-associated factor 1", "experiment": "Binding affinity to Avi-tagged DCAF1 (1039 to 1401 residues) (unknown origin) expressed in baculovirus infected in Sf9 insect cells by NMR analysis"}}, "data": [{"smiles": "NC1=NCC(c2cccc(Oc3ccc(Cl)cc3)c2)C1", "note": "(stereo not drawn)", "values": [{"measurement": "Kd", "setting": "[1]", "value": "> 100", "unit": "µM"}, {"measurement": "Kd", "setting": "[2]", "value": "> 500", "unit": "µM"}]}, {"smiles": "Clc1ccc(C2(C3=Cc4ccccc4C4=NCCN34)CC2)cc1", "values": [{"measurement": "Kd", "setting": "[1]", "value": 41, "unit": "µM"}, {"measurement": "Kd", "setting": "[2]", "value": 13, "unit": "µM"}]}, {"smiles": "COc1ccc(C2(C3=Cc4ccccc4C4=NCCN34)CC2)cc1", "values": [{"measurement": "Kd", "setting": "[1]", "value": "> 50", "unit": "µM"}]}, {"smiles": "COc1ccc(C2(C3=Cc4cc(N5CCN(C)CC5)ccc4C4=NCCN34)CC2)cc1", "values": [{"measurement": "Kd", "setting": "[1]", "value": 11.4, "unit": "µM"}]}, {"smiles": "COc1ccc(C2(c3nc(NCCN)c4ccccc4n3)CC2)cc1", "values": [{"measurement": "Kd", "setting": "[1]", "value": 26.7, "unit": "µM"}]}, {"smiles": "COc1ccc(C2(c3nc(NCCN)c4ccc(N5CCN(C)CC5)cc4n3)CC2)cc1", "values": [{"measurement": "Kd", "setting": "[1]", "value": 5.6, "unit": "µM"}]}, {"smiles": "COc1ccc(C2(c3nc(NCCN)c4ccc(N5CCN(C(C)=O)CC5)cc4n3)CC2)cc1", "values": [{"measurement": "Kd", "setting": "[1]", "value": 1.5, "unit": "µM"}]}, {"smiles": "CN1CCN(c2ccc3c(NCCN)nc(C4(c5ccc(Cl)cc5)CCCC4)nc3c2)CC1", "values": [{"measurement": "Kd", "setting": "[1]", "value": 0.098, "unit": "µM"}]}, {"smiles": "CC(=O)N1CCN(c2ccc3c(NCCN)nc(C4(c5ccc(Cl)cc5)CCCC4)nc3c2)CC1", "values": [{"measurement": "Kd", "setting": "[1]", "value": 0.047, "unit": "µM"}]}, {"smiles": "CN1CCN(c2ccc3c(NCCN)nc(C4(c5ccc(Cl)cc5)CCCCC4)nc3c2)CC1", "values": [{"measurement": "Kd", "setting": "[1]", "value": 0.083, "unit": "µM"}]}, {"smiles": "CC(C)(Cc1ccccc1)C1=Cc2ccccc2C2=NCCN12", "values": [{"measurement": "Kd", "setting": "[2]", "value": 40, "unit": "µM"}]}]}
